Measurements published in ChEMBL document CHEMBL6083269, “Design, synthesis, in vitro and in vivo trypanosomaticidal efficacy of novel 5-nitroindolylazines” (Eur J Med Chem, 2024).

Columns and labels:
Trypanosoma equiperdum = assay: Trypanocidal activity against Trypanosoma equiperdum IVM-t1 incubated for 72 hrs by CellTiter-Glo reagent based […] analysis; format: functional, organism-based; settings: IVM-t1, 72 h
[1] = test system: Trypanosoma brucei gambiense; assay: Trypanocidal activity against Trypanosoma brucei gambiense IL1922 incubated for 72 hrs by CellTiter-Glo reagent based […] analysis; format: functional, organism-based; settings: IL1922, 72 h
Trypanosoma congolense = assay: Trypanocidal activity against Trypanosoma congolense IL3000 incubated for 72 hrs by CellTiter-Glo reagent based […] analysis; format: functional, organism-based; settings: IL3000, 72 h
Trypanosoma evansi = assay: Trypanocidal activity against Trypanosoma evansi Tansui incubated for 72 hrs by CellTiter-Glo reagent based […] analysis; format: functional, organism-based
[2] = Cytotoxicity against MDBK cells incubated for 72 hrs by CCK8 assay; format: toxicity, cell-based, Bos taurus; settings: cattle, MDBK cells
[3] = test system: Trypanosoma brucei rhodesiense; assay: Trypanocidal activity against Trypanosoma brucei rhodesiense IL1501 incubated for 72 hrs by CellTiter-Glo reagent based […] analysis; format: functional, organism-based; settings: IL1501, 72 h
Leishmania donovani [4] = assay: Leishmanicidal activity against Leishmania donovani 9515 (MHOM/IN/95/9151) amastigote infected in THP-1 cells incubated for 72 hrs by resazurin dye based plate reader assay; format: functional, organism-based; settings: THP-1, 72 h
Leishmania donovani [5] = assay: Antileishmanial activity against Leishmania donovani 9515 (MHOM/IN/95/9151) amastigote infected in THP-1 cells assessed as inhibition of parasite growth incubated for 72 hrs by resazurin dye based plate reader assay; format: functional, organism-based; settings: THP-1, 72 h
Leishmania donovani [6] = assay: Antileishmanial activity against Leishmania donovani 9515 (MHOM/IN/95/9151) promastigote incubated for 48 hrs by resazurin dye based plate reader assay; format: functional, organism-based
[7] = test system: Trypanosoma brucei brucei; assay: Trypanocidal activity against Trypanosoma brucei brucei GUTat3.1 incubated for 72 hrs by CellTiter-Glo reagent based […] analysis; format: functional, organism-based; settings: GUTat3.1, 72 h
[8] = Cytotoxicity against green monkey Vero cells incubated for 48 hrs by resazurin dye based assay; format: toxicity, cell-based; settings: African green monkey (Chlorocebus sabaeus)
[9] = Cytotoxicity against human […]-differentiated THP-1 cells incubated for 72 hrs by resazurin dye based assay; format: toxicity, cell-based
[10] = Selectivity index, ratio of IC50 for human THP-1 cells to IC50 for static antileishmanial activity against Leishmania donovani 9515 (MHOM/IN/95/9151) amastigote; format: toxicity, cell-based; settings: read-out: Ratio IC50
[11] = Selectivity index, ratio of IC50 for african green monkey Vero cells to IC50 for leishmanicidal activity against Leishmania donovani 9515 (MHOM/IN/95/9151) amastigote; format: toxicity, cell-based; settings: read-out: Ratio IC50
[12] = Selectivity index, ratio of IC50 for african green monkey Vero cells to IC50 for static antileishmanial activity against Leishmania donovani 9515 (MHOM/IN/95/9151) amastigote; format: toxicity, cell-based; settings: read-out: Ratio IC50
[13] = Selectivity index, ratio of IC50 for human THP-1 cells to IC50 for leishmanicidal activity against Leishmania donovani 9515 (MHOM/IN/95/9151) amastigote; format: toxicity, cell-based; settings: read-out: Ratio IC50
[14] = Selectivity index, ratio of CC50 for MDBK to IC50 for Trypanosoma congolense IL3000; format: toxicity, cell-based; settings: cattle, MDBK cells; read-out: Ratio CC50/IC50
[15] = Selectivity index, ratio of IC50 for african green monkey Vero cells to IC50 for Leishmania donovani 9515 (MHOM/IN/95/9151) promastigote; format: toxicity, cell-based; settings: read-out: Ratio IC50
[16] = Selectivity index, ratio of IC50 for human THP-1 cells to IC50 for Leishmania donovani 9515 (MHOM/IN/95/9151) promastigote; format: toxicity, cell-based; settings: read-out: Ratio IC50
[17] = Selectivity index, ratio of CC50 for MDBK to IC50 for Trypanosoma brucei brucei GUTat3.1; format: toxicity, cell-based; settings: cattle, MDBK cells; read-out: Ratio CC50/IC50
[18] = Selectivity index, ratio of CC50 for MDBK to IC50 for Trypanosoma brucei gambiense IL1922; format: toxicity, cell-based; settings: cattle, MDBK cells; read-out: Ratio CC50/IC50
[19] = Selectivity index, ratio of CC50 for MDBK to IC50 for Trypanosoma equiperdum IVM-t1; format: toxicity, cell-based; settings: cattle, MDBK cells; read-out: Ratio CC50/IC50
[20] = Selectivity index, ratio of CC50 for MDBK to IC50 for Trypanosoma brucei rhodesiense IL1501; format: toxicity, cell-based; settings: cattle, MDBK cells; read-out: Ratio CC50/IC50
[21] = Selectivity index, ratio of CC50 for MDBK to IC50 for Trypanosoma evansi Tansui; format: toxicity, cell-based; settings: cattle, MDBK cells; read-out: Ratio CC50/IC50

Structure (SMILES) | IC50 (Trypanosoma equiperdum) | IC50 [1] | IC50 (Trypanosoma congolense) | IC50 (Trypanosoma evansi) | CC50 at 72 h [2] | IC50 [3] | IC50 (Leishmania donovani [4]) | IC50 (Leishmania donovani [5]) | IC50 (Leishmania donovani [6]) | IC50 [7] | IC50 at 48 h [8] | IC50 at 72 h [9] | other results
Cc1ccc(C(=O)Nc2ccc(S(=O)(=O)O)c3cc(S(=O)(=O)O)cc(S(=O)(=O)O)c23)cc1NC(=O)c1cccc(NC(=O)Nc2cccc(C(=O)Nc3cc(C(=O)Nc4ccc(S(=O)(=O)O)c5cc(S(=O)(=O)O)cc(S(=O)(=O)O)c45)ccc3C)c2)c1 [SURAMIN] | 0.038 µM | – | – | – | – | – | – | – | – | – | – | – | –
N=C(N)c1ccc(OCCCCCOc2ccc(C(=N)N)cc2)cc1 [PENTAMIDINE] | 0.001 µM | 0.014 µM | 0.33 µM | 0.001 µM | – | – | – | – | – | – | – | – | –
C#CCn1cc(/C=N\N=C\c2cccn2C)c2cc([N+](=O)[O-])ccc21 | > 74.8 µM | > 74.8 µM | > 74.8 µM | > 74.8 µM | > 299 µM | > 74.8 µM | > 10 µM | > 10 µM | > 10 µM | > 74.8 µM | – | – | –
O=[N+]([O-])c1ccc2[nH]ccc2c1 | – | – | – | – | – | – | > 10 µM | > 10 µM | > 10 µM | – | > 100 µM | > 100 µM | –
C#CCn1cc(/C=N\N=C\c2cccnc2)c2cc([N+](=O)[O-])ccc21 | > 75.5 µM | > 75.5 µM | > 75.5 µM | > 75.5 µM | 111 µM | > 75.5 µM | 1.46 µM | 1.32 µM | > 10 µM | > 75.5 µM | > 100 µM | > 100 µM | selectivity ratio [10]: 76; selectivity ratio [11]: > 68; selectivity ratio [12]: > 76; selectivity ratio [13]: > 68
C#CCn1cc(/C=N\N=C\c2nccn2C)c2cc([N+](=O)[O-])ccc21 | > 75.5 µM | > 75.5 µM | 12.8 µM | > 75.5 µM | > 302 µM | > 75.5 µM | > 10 µM | > 10 µM | > 10 µM | > 75.5 µM | 54.7 µM | 29.7 µM | selectivity ratio [14]: > 23.5
NCCCC(N)(C(=O)O)C(F)F (stereo unspecified) [EFLORNITHINE] | – | 36.7 µM | 16.1 µM | 57.2 µM | – | 46 µM | – | – | – | 38.6 µM | – | – | –
C#CCn1cc(/C=N\N)c2cc([N+](=O)[O-])ccc21 | > 103 µM | > 103 µM | > 3.2 µM | > 103 µM | 341 µM | > 103 µM | > 10 µM | > 10 µM | > 10 µM | > 103 µM | 96.8 µM | 61 µM | –
C#CCn1cc(\C=N/N=C/C(C)=C\C)c2cc([N+](=O)[O-])ccc21 | > 81.2 µM | > 81.2 µM | > 81.2 µM | > 81.2 µM | > 281 µM | > 81.2 µM | 1.7 µM | 0.32 µM | 10.5 µM | > 81.2 µM | 84.2 µM | > 100 µM | selectivity ratio [10]: 313; selectivity ratio [11]: 50; selectivity ratio [15]: 8; selectivity ratio [16]: 10; selectivity ratio [12]: 226; selectivity ratio [13]: > 59
C#CCn1cc(C=O)c2cc([N+](=O)[O-])ccc21 | > 110 µM | > 110 µM | > 110 µM | > 110 µM | > 438 µM | > 110 µM | > 10 µM | > 10 µM | > 10 µM | > 110 µM | > 100 µM | 77 µM | –
N=C(N)c1ccc(/N=N/Nc2ccc(C(=N)N)cc2)cc1 [DIMINAZENE DIACETURATE] | 0.011 µM | – | 0.109 µM | – | – | – | – | – | – | – | – | – | –
C#CCn1ccc2cc([N+](=O)[O-])ccc21 | > 125 µM | > 125 µM | > 125 µM | > 125 µM | > 500 µM | > 125 µM | > 10 µM | > 10 µM | > 10 µM | > 125 µM | > 100 µM | > 100 µM | –
C#CCn1cc(/C=N\N=C\c2cnc[nH]2)c2cc([N+](=O)[O-])ccc21 | > 78 µM | > 78 µM | 14.8 µM | > 78 µM | > 312 µM | > 78 µM | > 10 µM | > 10 µM | > 10 µM | > 78 µM | 83.2 µM | 42.5 µM | selectivity ratio [14]: > 21
C#CCn1cc(/C=N\N=C\c2ccncc2)c2cc([N+](=O)[O-])ccc21 | > 75.5 µM | > 75.5 µM | > 75.5 µM | > 75.5 µM | 267 µM | > 75.5 µM | > 10 µM | > 10 µM | > 10 µM | > 75.5 µM | > 100 µM | 66.4 µM | –
C#CCn1cc(/C=N\N=C/CC)c2cc([N+](=O)[O-])ccc21 | 56.1 µM | 51.6 µM | > 88.6 µM | 55.4 µM | > 354 µM | 75.1 µM | > 10 µM | > 10 µM | > 10 µM | 78.8 µM | > 100 µM | > 100 µM | selectivity ratio [17]: > 4.49; selectivity ratio [18]: > 6.86; selectivity ratio [19]: > 6.3; selectivity ratio [20]: > 4.72; selectivity ratio [21]: > 6.39
C#CCn1cc(/C=N\N=C\c2ccccn2)c2cc([N+](=O)[O-])ccc21 | > 75.5 µM | > 75.5 µM | > 75.5 µM | > 75.5 µM | > 121 µM | > 75.5 µM | 3.35 µM | 1.59 µM | > 10 µM | > 75.5 µM | > 100 µM | > 100 µM | selectivity ratio [10]: 63; selectivity ratio [11]: > 30; selectivity ratio [12]: > 63; selectivity ratio [13]: > 30
C#CCn1cc(/C=N\N=C/C)c2cc([N+](=O)[O-])ccc21 | > 93.2 µM | > 93.2 µM | > 93.2 µM | > 93.2 µM | > 373 µM | > 93.2 µM | > 10 µM | > 10 µM | > 10 µM | > 93.2 µM | 89 µM | 59.3 µM | –
C#CCn1cc(/C=N\N=C\c2ccc([N+](=O)[O-])cc2)c2cc([N+](=O)[O-])ccc21 | > 66.7 µM | > 66.7 µM | 8.84 µM | > 66.7 µM | > 68.2 µM | > 66.7 µM | 3.91 µM | 9.75 µM | > 10 µM | > 66.7 µM | 27.5 µM | 25.7 µM | selectivity ratio [10]: 3; selectivity ratio [11]: 7; selectivity ratio [12]: 3; selectivity ratio [13]: 7; selectivity ratio [14]: > 30.1
C#CCn1cc(/C=N\N=C/CCC)c2cc([N+](=O)[O-])ccc21 | > 84.4 µM | > 84.4 µM | > 84.4 µM | > 84.4 µM | > 338 µM | 48.5 µM | > 10 µM | > 10 µM | > 10 µM | > 84.4 µM | > 100 µM | 43.9 µM | selectivity ratio [20]: > 6.96
C#CCn1cc(/C=N\N=C\C2CCCCC2)c2cc([N+](=O)[O-])ccc21 | 21.8 µM | 16.1 µM | > 74.3 µM | > 74.3 µM | > 297 µM | 19.4 µM | > 10 µM | 2.85 µM | > 10 µM | 18.6 µM | > 100 µM | 52.9 µM | selectivity ratio [10]: 19; selectivity ratio [17]: > 16; selectivity ratio [12]: > 35; selectivity ratio [18]: > 18.4; selectivity ratio [19]: > 13.7; selectivity ratio [20]: > 15.3
CC1CS(=O)(=O)CCN1/N=C/c1ccc([N+](=O)[O-])o1 (stereo unspecified) [NIFURTIMOX] | – | 4.58 µM | – | – | – | – | – | – | – | – | – | – | –
C#CCn1cc(/C=N\N=C/C2CC2)c2cc([N+](=O)[O-])ccc21 | > 84.9 µM | > 84.9 µM | > 84.9 µM | > 84.9 µM | > 340 µM | > 84.9 µM | > 10 µM | > 10 µM | > 10 µM | > 84.9 µM | 88.4 µM | 51.8 µM | –
